Test results taken from ChEMBL document CHEMBL1759834, “Synthesis, stereochemistry, antimicrobial evaluation and QSAR studies of 2,6-diaryltetrahydropyran-4-one thiosemicarbazones” (2011).
Values after ≈ are worked out from the molar mass of the structure shown.

Columns and labels:
Bacillus subtilis = test: Antibacterial activity against Bacillus subtilis ATCC 451 after 24 hrs by twofold serial dilution method; type: functional; conditions: for MIC: Bacillus subtilis, ATCC 451, 24 h
Candida albicans = test: Antifungal activity against Candida albicans after 24 hrs by twofold serial dilution method; type: functional; conditions: for MIC: Candida albicans, 24 h
Salmonella typhi = test: Antibacterial activity against Salmonella typhi ATCC 24915 after 24 hrs by twofold serial dilution method; type: functional, Salmonella enterica subsp. enterica serovar Typhi; conditions: for MIC: Salmonella enterica, ATCC 24915, 24 h
Cryptococcus neoformans = test: Antifungal activity against Cryptococcus neoformans after 72 to 96 hrs by twofold serial dilution method; type: functional; conditions: for MIC: Cryptococcus neoformans
Escherichia coli = test: Antibacterial activity against Escherichia coli ATCC 25835 after 24 hrs by twofold serial dilution method; type: functional; conditions: for MIC: Escherichia coli, ATCC 25835, 24 h
Klebsiella pneumoniae = test: Antibacterial activity against Klebsiella pneumoniae ATCC 15490 after 24 hrs by twofold serial dilution method; type: functional; conditions: for MIC: Klebsiella pneumoniae, ATCC 15490, 24 h
Aspergillus niger = test: Antifungal activity against Aspergillus niger after 72 to 96 hrs by twofold serial dilution method; type: functional; conditions: for MIC: Aspergillus niger
Pseudomonas aeruginosa = test: Antibacterial activity against Pseudomonas aeruginosa ATCC 10145 after 24 hrs by twofold serial dilution method; type: functional; conditions: for MIC: Pseudomonas aeruginosa, ATCC 10145, 24 h
Staphylococcus aureus = test: Antibacterial activity against Staphylococcus aureus ATCC 25825 after 24 hrs by twofold serial dilution method; type: functional; conditions: for MIC: Staphylococcus aureus, ATCC 25825, 24 h

Row | Compound | -logMIC (Bacillus subtilis) | MIC (Bacillus subtilis) [µg/mL] | -logMIC (Candida albicans) | MIC (Candida albicans) [µg/mL] | MIC (Salmonella typhi) [µg/mL] | -logMIC (Cryptococcus neoformans) | MIC (Cryptococcus neoformans) [µg/mL] | -logMIC (Escherichia coli) | MIC (Escherichia coli) [µg/mL] | -logMIC (Klebsiella pneumoniae) | MIC (Klebsiella pneumoniae) [µg/mL] | -logMIC (Aspergillus niger) | MIC (Aspergillus niger) [µg/mL] | -logMIC (Pseudomonas aeruginosa) | MIC (Pseudomonas aeruginosa) [µg/mL] | -logMIC (Staphylococcus aureus) | MIC (Staphylococcus aureus) [µg/mL] | -logMIC (Salmonella typhi)
1 | C[C@@H]1/C(=N\NC(N)=S)[C@@H](C)[C@H](c2ccc(F)cc2)O[C@@H]1c1ccc(F)cc1 | 4.602 | 25 (≈ 64.2 µM) | 4 | 100 (≈ 257 µM) | 25 (≈ 64.2 µM) | 4.602 | 25 (≈ 64.2 µM) | 4.301 | 50 (≈ 128 µM) | 4.301 | 50 (≈ 128 µM) | 4 | 100 (≈ 257 µM) | 4 | 100 (≈ 257 µM) | 4.301 | 50 (≈ 128 µM) | –
2 | COc1ccc([C@H]2O[C@@H](c3ccc(OC)cc3)[C@H](C)/C(=N/NC(=S)Nc3ccccc3)[C@H]2C)cc1 | 4.903 | 12.5 (≈ 25.5 µM) | 5.204 | 6.25 (≈ 12.8 µM) | 100 (≈ 204 µM) | 3.698 | 200 (≈ 408 µM) | 4.602 | 25 (≈ 51.1 µM) | 4.602 | 25 (≈ 51.1 µM) | 4.602 | 25 (≈ 51.1 µM) | 4.602 | 25 (≈ 51.1 µM) | 4.903 | 12.5 (≈ 25.5 µM) | 4
3 | COc1cccc([C@H]2O[C@@H](c3cccc(OC)c3)[C@H](C)/C(=N/NC(=S)Nc3ccccc3)[C@H]2C)c1 | 4.903 | 12.5 (≈ 25.5 µM) | 4.602 | 25 (≈ 51.1 µM) | 50 (≈ 102 µM) | 4 | 100 (≈ 204 µM) | 4.301 | 50 (≈ 102 µM) | 4 | 100 (≈ 204 µM) | 4 | 100 (≈ 204 µM) | 3.698 | 200 (≈ 408 µM) | 4.903 | 12.5 (≈ 25.5 µM) | –
4 | C[C@@H]1[C@H](O)[C@@H](C)/C=C/C=C/C=C/C=C/C=C/C=C/C=C/[C@H](O[C@@H]2O[C@H](C)[C@@H](O)[C@H](N)[C@@H]2O)C[C@@H]2O[C@](O)(C[C@@H](O)C[C@@H](O)[C@H](O)CC[C@@H](O)C[C@@H](O)CC(=O)O[C@H]1C)C[C@H](O)[C@H]2C(=O)O [AMPHOTERICIN B] | – | – | – | 25 (≈ 27.1 µM) | – | 4.602 | 25 (≈ 27.1 µM) | – | – | – | – | 4.301 | 50 (≈ 54.1 µM) | – | – | – | – | –
5 | C[C@@H]1/C(=N\NC(=S)Nc2ccccc2)[C@@H](C)[C@H](c2ccc(Cl)cc2)O[C@@H]1c1ccc(Cl)cc1 | 4.602 | 25 (≈ 50.2 µM) | 4.903 | 12.5 (≈ 25.1 µM) | 25 (≈ 50.2 µM) | 5.204 | 6.25 (≈ 12.5 µM) | 4 | 100 (≈ 201 µM) | 4.903 | 12.5 (≈ 25.1 µM) | 4.301 | 50 (≈ 100 µM) | 5.204 | 6.25 (≈ 12.5 µM) | 4.602 | 25 (≈ 50.2 µM) | –
6 | COc1ccc([C@H]2O[C@@H](c3ccc(OC)cc3)[C@H](C)/C(=N/NC(N)=S)[C@H]2C)cc1 | 4.903 | 12.5 (≈ 30.2 µM) | 4.903 | 12.5 (≈ 30.2 µM) | 50 (≈ 121 µM) | 3.698 | 200 (≈ 484 µM) | 4.602 | 25 (≈ 60.5 µM) | 4.301 | 50 (≈ 121 µM) | 4.301 | 50 (≈ 121 µM) | 4.301 | 50 (≈ 121 µM) | 4.903 | 12.5 (≈ 30.2 µM) | –
7 | C[C@@H]1/C(=N\NC(N)=S)[C@@H](C)[C@H](c2ccc(Br)cc2)O[C@@H]1c1ccc(Br)cc1 | 4.301 | 50 (≈ 97.8 µM) | 4.301 | 50 (≈ 97.8 µM) | 25 (≈ 48.9 µM) | 4.301 | 50 (≈ 97.8 µM) | 4.301 | 50 (≈ 97.8 µM) | 4.602 | 25 (≈ 48.9 µM) | 3.698 | 200 (≈ 391 µM) | 4.903 | 12.5 (≈ 24.4 µM) | 4.602 | 25 (≈ 48.9 µM) | –
8 | C[C@@H]1/C(=N\NC(=S)Nc2ccccc2)[C@@H](C)[C@H](c2cccc(Cl)c2)O[C@@H]1c1cccc(Cl)c1 | 4.602 | 25 (≈ 50.2 µM) | 4.602 | 25 (≈ 50.2 µM) | 12.5 (≈ 25.1 µM) | 4.602 | 25 (≈ 50.2 µM) | 4 | 100 (≈ 201 µM) | 4.903 | 12.5 (≈ 25.1 µM) | 4 | 100 (≈ 201 µM) | 4.602 | 25 (≈ 50.2 µM) | 4.301 | 50 (≈ 100 µM) | –
9 | CC[C@@H]1/C(=N/NC(N)=S)C[C@@H](c2ccccc2)O[C@H]1c1ccccc1 | 4.301 | 50 (≈ 141 µM) | 3.698 | 200 (≈ 566 µM) | 50 (≈ 141 µM) | 4.301 | 50 (≈ 141 µM) | 4.602 | 25 (≈ 70.7 µM) | 4 | 100 (≈ 283 µM) | 3.698 | 200 (≈ 566 µM) | 4 | 100 (≈ 283 µM) | 4.301 | 50 (≈ 141 µM) | –
10 | C[C@@H]1/C(=N/NC(N)=S)C[C@@H](c2ccccc2)O[C@H]1c1ccccc1 | – | – | 3.698 | 200 (≈ 589 µM) | 50 (≈ 147 µM) | 4.301 | 50 (≈ 147 µM) | – | – | 4 | 100 (≈ 295 µM) | – | – | 3.698 | 200 (≈ 589 µM) | 4 | 100 (≈ 295 µM) | –
11 | C[C@@H]1/C(=N/NC(=S)Nc2ccccc2)C[C@@H](c2ccccc2)O[C@H]1c1ccccc1 | 4.301 | 50 (≈ 120 µM) | 4 | 100 (≈ 241 µM) | 100 (≈ 241 µM) | 4.903 | 12.5 (≈ 30.1 µM) | 4.301 | 50 (≈ 120 µM) | 4 | 100 (≈ 241 µM) | 4 | 100 (≈ 241 µM) | 4.301 | 50 (≈ 120 µM) | 4.301 | 50 (≈ 120 µM) | 4
12 | Cc1ccc([C@H]2O[C@@H](c3ccc(C)cc3)[C@H](C)/C(=N/NC(=S)Nc3ccccc3)[C@H]2C)cc1 | 4.301 | 50 (≈ 109 µM) | 5.204 | 6.25 (≈ 13.7 µM) | 50 (≈ 109 µM) | 4.301 | 50 (≈ 109 µM) | 4.301 | 50 (≈ 109 µM) | – | – | 4.602 | 25 (≈ 54.6 µM) | 4 | 100 (≈ 219 µM) | 4 | 100 (≈ 219 µM) | –
13 | C[C@@H]1/C(=N\NC(=S)Nc2ccccc2)[C@@H](C)[C@H](c2ccc(F)cc2)O[C@@H]1c1ccc(F)cc1 | 4.301 | 50 (≈ 107 µM) | 4 | 100 (≈ 215 µM) | 25 (≈ 53.7 µM) | 5.204 | 6.25 (≈ 13.4 µM) | 4 | 100 (≈ 215 µM) | 4.301 | 50 (≈ 107 µM) | 4 | 100 (≈ 215 µM) | 4.903 | 12.5 (≈ 26.8 µM) | 4.301 | 50 (≈ 107 µM) | 4.602
